Laboratory results taken from the NIST ThermoML archive (doi:10.1021/acs.jced.8b00720).
Numbers after ± are expanded uncertainties.

Assays:
[1] = Molar enthalpy of transition or fusion; details: Crystal; DSC
[2] = Crystal; DSC

CC[C@@H](C(N)=O)N1CCCC1=O [(S)-2-(2-oxopyrrolidin-1-yl)butanamide]
Molar enthalpy of transition or fusion [1]: 7.07 ± 0.239 kcal/mol
Triple point temperature [2]: 389.85 ± 1.2 K
